{"source": "ChEMBL document CHEMBL5291721", "about": "“A preclinical secondary pharmacology resource illuminates target-adverse drug reaction associations of marketed drugs” (Nat Commun, 2023); also: assay procedure not described here", "key": {"[1]": {"molecular_target": "Beta-1 adrenergic receptor (Homo sapiens, UniProt P08588)", "sequence (P08588 whole entry)": "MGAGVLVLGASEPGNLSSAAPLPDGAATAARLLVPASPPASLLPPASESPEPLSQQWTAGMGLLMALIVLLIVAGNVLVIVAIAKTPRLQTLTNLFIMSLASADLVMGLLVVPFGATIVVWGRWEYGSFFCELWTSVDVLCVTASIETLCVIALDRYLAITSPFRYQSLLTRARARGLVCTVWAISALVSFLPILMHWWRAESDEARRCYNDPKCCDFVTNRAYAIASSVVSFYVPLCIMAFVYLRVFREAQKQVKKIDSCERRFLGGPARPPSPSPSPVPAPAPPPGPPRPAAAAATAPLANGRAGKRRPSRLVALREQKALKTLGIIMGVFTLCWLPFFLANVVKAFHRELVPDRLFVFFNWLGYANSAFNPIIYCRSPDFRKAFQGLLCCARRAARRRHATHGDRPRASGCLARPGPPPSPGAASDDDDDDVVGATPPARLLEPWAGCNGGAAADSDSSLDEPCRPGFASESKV", "format": "functional, cell-based"}, "[2]": {"molecular_target": "T1, Peroxisome proliferator-activated receptor gamma (Homo sapiens, UniProt P37231)", "T1 sequence (P37231 whole entry)": "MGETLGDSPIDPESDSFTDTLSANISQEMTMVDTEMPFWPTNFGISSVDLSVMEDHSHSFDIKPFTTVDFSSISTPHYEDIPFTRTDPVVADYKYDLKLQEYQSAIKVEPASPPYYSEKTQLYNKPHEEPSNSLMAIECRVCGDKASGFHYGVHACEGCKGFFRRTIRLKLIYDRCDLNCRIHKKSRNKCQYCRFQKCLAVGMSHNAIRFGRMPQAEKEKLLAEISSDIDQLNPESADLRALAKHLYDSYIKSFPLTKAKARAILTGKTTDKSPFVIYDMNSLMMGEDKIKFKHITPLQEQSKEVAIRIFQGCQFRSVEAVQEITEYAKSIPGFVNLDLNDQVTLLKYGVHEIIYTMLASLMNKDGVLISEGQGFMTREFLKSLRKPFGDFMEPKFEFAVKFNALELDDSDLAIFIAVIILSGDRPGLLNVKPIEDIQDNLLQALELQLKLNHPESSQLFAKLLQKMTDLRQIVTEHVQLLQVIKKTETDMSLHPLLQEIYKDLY", "format": "functional"}, "[3]": {"molecular_target": "T1, Peroxisome proliferator-activated receptor gamma", "format": "functional", "remark": "listed apart in the source"}, "[4]": {"molecular_target": "Histamine H1 receptor (Homo sapiens, UniProt P35367)", "sequence (P35367 whole entry)": "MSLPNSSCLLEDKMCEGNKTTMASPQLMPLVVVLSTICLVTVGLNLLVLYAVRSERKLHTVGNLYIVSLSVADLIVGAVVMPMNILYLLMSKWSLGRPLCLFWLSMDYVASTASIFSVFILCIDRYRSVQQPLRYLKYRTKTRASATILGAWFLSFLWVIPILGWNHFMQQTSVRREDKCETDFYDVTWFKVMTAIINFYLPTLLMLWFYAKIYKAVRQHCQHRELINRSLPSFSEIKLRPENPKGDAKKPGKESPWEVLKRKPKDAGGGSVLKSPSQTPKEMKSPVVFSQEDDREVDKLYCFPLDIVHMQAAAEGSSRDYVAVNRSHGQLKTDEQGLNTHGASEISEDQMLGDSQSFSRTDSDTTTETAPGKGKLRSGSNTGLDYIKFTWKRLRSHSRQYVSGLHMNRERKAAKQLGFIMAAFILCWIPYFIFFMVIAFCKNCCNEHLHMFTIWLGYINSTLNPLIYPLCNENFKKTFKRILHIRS", "format": "functional, cell-based"}, "[5]": {"molecular_target": "Cannabinoid receptor 1 (Homo sapiens, UniProt P21554)", "sequence (P21554 whole entry)": "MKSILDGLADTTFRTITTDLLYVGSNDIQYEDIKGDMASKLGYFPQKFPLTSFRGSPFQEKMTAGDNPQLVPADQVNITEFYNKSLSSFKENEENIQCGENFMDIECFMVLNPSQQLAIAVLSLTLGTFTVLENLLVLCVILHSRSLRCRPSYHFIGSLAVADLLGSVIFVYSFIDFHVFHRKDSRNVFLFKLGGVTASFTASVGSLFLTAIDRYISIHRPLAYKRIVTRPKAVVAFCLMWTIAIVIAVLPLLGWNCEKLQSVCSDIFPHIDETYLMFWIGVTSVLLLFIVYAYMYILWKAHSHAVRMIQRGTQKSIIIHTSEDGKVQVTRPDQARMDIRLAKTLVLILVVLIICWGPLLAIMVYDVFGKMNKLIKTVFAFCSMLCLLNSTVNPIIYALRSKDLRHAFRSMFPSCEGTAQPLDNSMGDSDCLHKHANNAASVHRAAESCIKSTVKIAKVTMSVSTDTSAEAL", "format": "functional"}, "[6]": {"molecular_target": "5-hydroxytryptamine receptor 7 (Homo sapiens, UniProt P34969)", "sequence (P34969 whole entry)": "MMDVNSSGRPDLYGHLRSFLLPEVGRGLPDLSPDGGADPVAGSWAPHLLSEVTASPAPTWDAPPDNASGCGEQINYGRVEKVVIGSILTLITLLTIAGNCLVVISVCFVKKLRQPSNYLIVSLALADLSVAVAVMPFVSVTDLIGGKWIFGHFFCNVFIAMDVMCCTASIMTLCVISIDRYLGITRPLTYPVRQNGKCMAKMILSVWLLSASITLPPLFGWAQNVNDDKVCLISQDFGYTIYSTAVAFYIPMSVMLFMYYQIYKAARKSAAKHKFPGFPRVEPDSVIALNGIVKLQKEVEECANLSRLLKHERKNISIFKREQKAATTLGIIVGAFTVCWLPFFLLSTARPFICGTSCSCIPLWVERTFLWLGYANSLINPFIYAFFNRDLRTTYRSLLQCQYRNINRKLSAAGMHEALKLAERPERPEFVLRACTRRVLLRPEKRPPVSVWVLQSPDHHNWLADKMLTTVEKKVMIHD"}, "[7]": {"molecular_target": "Substance-P receptor (Homo sapiens, UniProt P25103)", "sequence (P25103 whole entry)": "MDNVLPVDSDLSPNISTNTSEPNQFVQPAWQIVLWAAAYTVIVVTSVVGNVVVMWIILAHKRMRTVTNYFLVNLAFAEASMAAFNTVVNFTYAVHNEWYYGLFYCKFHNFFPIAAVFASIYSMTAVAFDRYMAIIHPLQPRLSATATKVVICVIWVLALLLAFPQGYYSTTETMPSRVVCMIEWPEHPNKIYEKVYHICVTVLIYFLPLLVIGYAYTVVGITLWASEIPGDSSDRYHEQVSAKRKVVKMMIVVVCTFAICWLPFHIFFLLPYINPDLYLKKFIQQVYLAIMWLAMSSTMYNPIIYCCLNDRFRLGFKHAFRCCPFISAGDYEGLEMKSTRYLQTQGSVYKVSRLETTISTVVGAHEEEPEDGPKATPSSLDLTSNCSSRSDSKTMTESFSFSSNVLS"}, "[8]": {"molecular_target": "T2, Muscarinic acetylcholine receptor M1 (Homo sapiens, UniProt P11229)", "T2 sequence (P11229 whole entry)": "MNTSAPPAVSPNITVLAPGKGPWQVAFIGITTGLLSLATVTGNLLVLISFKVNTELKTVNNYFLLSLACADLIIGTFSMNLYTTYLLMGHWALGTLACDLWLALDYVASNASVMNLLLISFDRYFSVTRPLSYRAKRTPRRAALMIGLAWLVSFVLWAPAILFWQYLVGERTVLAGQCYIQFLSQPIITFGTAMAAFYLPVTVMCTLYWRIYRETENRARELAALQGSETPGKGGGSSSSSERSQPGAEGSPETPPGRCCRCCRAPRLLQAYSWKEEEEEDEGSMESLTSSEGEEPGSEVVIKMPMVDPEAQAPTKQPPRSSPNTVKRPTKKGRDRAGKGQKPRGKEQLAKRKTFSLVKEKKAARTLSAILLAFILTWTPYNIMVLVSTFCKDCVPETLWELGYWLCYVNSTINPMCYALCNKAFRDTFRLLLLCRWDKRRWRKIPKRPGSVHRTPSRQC"}, "[9]": {"molecular_target": "T3, Muscarinic acetylcholine receptor M4 (Homo sapiens, UniProt P08173)", "T3 sequence (P08173 whole entry)": "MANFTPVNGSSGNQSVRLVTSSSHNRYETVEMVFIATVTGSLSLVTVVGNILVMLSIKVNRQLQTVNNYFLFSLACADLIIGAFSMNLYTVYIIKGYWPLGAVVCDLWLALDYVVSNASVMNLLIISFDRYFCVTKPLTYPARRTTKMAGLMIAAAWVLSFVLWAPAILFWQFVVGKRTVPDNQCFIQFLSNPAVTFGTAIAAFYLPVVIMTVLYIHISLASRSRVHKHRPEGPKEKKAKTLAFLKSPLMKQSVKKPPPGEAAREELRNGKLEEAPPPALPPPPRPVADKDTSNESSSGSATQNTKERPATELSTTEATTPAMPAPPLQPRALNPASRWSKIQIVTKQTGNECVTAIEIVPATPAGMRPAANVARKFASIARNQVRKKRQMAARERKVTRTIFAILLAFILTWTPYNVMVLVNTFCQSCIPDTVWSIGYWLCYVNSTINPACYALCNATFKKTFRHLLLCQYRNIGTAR"}, "[10]": {"molecular_target": "T4, Muscarinic acetylcholine receptor M5 (Homo sapiens, UniProt P08912)", "T4 sequence (P08912 whole entry)": "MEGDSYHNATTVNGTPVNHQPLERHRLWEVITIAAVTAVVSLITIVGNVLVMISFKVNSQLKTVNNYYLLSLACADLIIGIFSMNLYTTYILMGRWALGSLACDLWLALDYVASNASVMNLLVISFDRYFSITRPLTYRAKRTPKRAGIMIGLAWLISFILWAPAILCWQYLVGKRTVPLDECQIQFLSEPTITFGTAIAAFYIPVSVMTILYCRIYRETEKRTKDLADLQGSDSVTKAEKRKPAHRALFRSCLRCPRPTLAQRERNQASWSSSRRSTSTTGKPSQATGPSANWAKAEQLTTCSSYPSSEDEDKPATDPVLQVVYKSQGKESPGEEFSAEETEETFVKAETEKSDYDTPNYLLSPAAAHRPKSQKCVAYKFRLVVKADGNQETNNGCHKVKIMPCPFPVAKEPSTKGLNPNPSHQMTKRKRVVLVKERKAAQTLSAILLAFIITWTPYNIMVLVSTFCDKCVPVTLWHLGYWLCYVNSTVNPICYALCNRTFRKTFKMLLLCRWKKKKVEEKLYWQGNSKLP"}, "[11]": {"molecular_target": "T5, Corticotropin-releasing factor receptor 2 (Homo sapiens, UniProt Q13324)", "T5 sequence (Q13324 whole entry)": "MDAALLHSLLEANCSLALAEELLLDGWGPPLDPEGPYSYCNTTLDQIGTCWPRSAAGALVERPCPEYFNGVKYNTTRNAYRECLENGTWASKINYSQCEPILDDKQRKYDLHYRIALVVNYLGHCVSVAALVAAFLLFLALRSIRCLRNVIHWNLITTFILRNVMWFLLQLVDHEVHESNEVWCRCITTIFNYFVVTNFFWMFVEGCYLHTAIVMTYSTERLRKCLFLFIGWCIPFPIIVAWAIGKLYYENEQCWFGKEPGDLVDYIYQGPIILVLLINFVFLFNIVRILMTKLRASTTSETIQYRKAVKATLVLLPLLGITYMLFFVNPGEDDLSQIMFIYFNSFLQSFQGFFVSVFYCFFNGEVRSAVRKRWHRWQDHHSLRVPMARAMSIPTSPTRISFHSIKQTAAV"}}, "data": [{"smiles": "C[N+](C)(C)CCOP(=O)([O-])OC[C@H](O)CO", "values": [{"measurement": "AC50", "setting": "[1]", "value": "> 30", "unit": "µM"}]}, {"smiles": "CN(C)C/C=C/C(=O)Nc1cc2c(Nc3ccc(F)c(Cl)c3)ncnc2cc1O[C@H]1CCOC1", "note": "[AFATINIB]", "values": [{"measurement": "AC50", "setting": "[2]", "value": "> 30", "unit": "µM"}, {"measurement": "AC50", "setting": "[3]", "value": "> 30", "unit": "µM"}, {"measurement": "AC50", "setting": "[4]", "value": "> 30", "unit": "µM"}]}, {"smiles": "O=C(/C=C/c1cccc(S(=O)(=O)Nc2ccccc2)c1)NO", "note": "[BELINOSTAT]", "values": [{"measurement": "AC50", "setting": "[5]", "value": "> 10", "unit": "µM"}, {"measurement": "AC50", "setting": "[6]", "value": "> 10", "unit": "µM"}, {"measurement": "AC50", "setting": "[7]", "value": "> 10", "unit": "µM"}, {"measurement": "AC50", "setting": "[8]", "value": "> 30", "unit": "µM"}, {"measurement": "AC50", "setting": "[9]", "value": "> 10", "unit": "µM"}, {"measurement": "AC50", "setting": "[10]", "value": "> 10", "unit": "µM"}]}, {"smiles": "CC(C)(Oc1ccc(CCNC(=O)c2ccc(Cl)cc2)cc1)C(=O)O", "note": "[BEZAFIBRATE]", "values": [{"measurement": "AC50", "setting": "[2]", "value": "> 30", "unit": "µM"}, {"measurement": "AC50", "setting": "[3]", "value": "> 30", "unit": "µM"}]}, {"smiles": "CC(O)(CS(=O)(=O)c1ccc(F)cc1)C(=O)Nc1ccc(C#N)c(C(F)(F)F)c1", "note": "(centres undefined) [BICALUTAMIDE]", "values": [{"measurement": "AC50", "setting": "[5]", "value": "> 10", "unit": "µM"}, {"measurement": "AC50", "setting": "[6]", "value": "> 10", "unit": "µM"}, {"measurement": "AC50", "setting": "[7]", "value": "> 10", "unit": "µM"}, {"measurement": "AC50", "setting": "[11]", "value": "> 30", "unit": "µM"}, {"measurement": "AC50", "setting": "[10]", "value": "> 10", "unit": "µM"}]}, {"smiles": "O=C(O)COCCN1CCN(C(c2ccccc2)c2ccc(Cl)cc2)CC1", "note": "(centres undefined) [CETIRIZINE]", "values": [{"measurement": "AC50", "setting": "[7]", "value": "> 10", "unit": "µM"}, {"measurement": "AC50", "setting": "[11]", "value": "> 30", "unit": "µM"}]}, {"smiles": "C[C@@H]1C[C@H]2[C@@H]3C[C@H](F)C4=CC(=O)C=C[C@]4(C)[C@@]3(F)[C@@H](O)C[C@]2(C)[C@@]1(OC(=O)c1ccco1)C(=O)SCF", "note": "[FLUTICASONE FUROATE]", "values": [{"measurement": "AC50", "setting": "[5]", "value": "> 10", "unit": "µM"}, {"measurement": "AC50", "setting": "[6]", "value": "> 10", "unit": "µM"}, {"measurement": "AC50", "setting": "[9]", "value": "> 10", "unit": "µM"}, {"measurement": "AC50", "setting": "[10]", "value": "> 10", "unit": "µM"}]}, {"smiles": "CNCCc1ccc(OC(=O)C(C)C)c(OC(=O)C(C)C)c1", "note": "[IBOPAMINE]", "values": [{"measurement": "AC50", "setting": "[1]", "value": "> 30", "unit": "µM"}]}, {"smiles": "CN(C)CCCN1c2ccccc2CCc2ccccc21", "note": "[IMIPRAMINE]", "values": [{"measurement": "AC50", "setting": "[5]", "value": "> 10", "unit": "µM"}, {"measurement": "AC50", "setting": "[6]", "value": "> 10", "unit": "µM"}, {"measurement": "AC50", "setting": "[7]", "value": "> 10", "unit": "µM"}, {"measurement": "AC50", "setting": "[11]", "value": "> 30", "unit": "µM"}, {"measurement": "AC50", "setting": "[9]", "value": 1.07, "unit": "µM"}, {"measurement": "AC50", "setting": "[10]", "value": 0.33, "unit": "µM"}]}, {"smiles": "COC(=O)C1=C(C)NC(C)=C(C(=O)OCCN2CCN(C(c3ccccc3)c3ccccc3)CC2)C1c1cccc([N+](=O)[O-])c1", "note": "(centres undefined) [MANIDIPINE 6300]", "values": [{"measurement": "AC50", "setting": "[1]", "value": "> 30", "unit": "µM"}]}, {"smiles": "CN(Cc1cnc2nc(N)nc(N)c2n1)c1ccc(C(=O)N[C@@H](CCC(=O)O)C(=O)O)cc1", "note": "[METHOTREXATE]", "values": [{"measurement": "AC50", "setting": "[11]", "value": "> 30", "unit": "µM"}]}, {"smiles": "OC[C@H]1O[C@@H](n2cnc3c2NC=NC[C@H]3O)C[C@@H]1O", "note": "[PENTOSTATIN]", "values": [{"measurement": "AC50", "setting": "[2]", "value": "> 30", "unit": "µM"}, {"measurement": "AC50", "setting": "[3]", "value": "> 30", "unit": "µM"}, {"measurement": "AC50", "setting": "[4]", "value": "> 30", "unit": "µM"}]}, {"smiles": "CC(C)c1cccc(C(C)C)c1O", "note": "[PROPOFOL]", "values": [{"measurement": "AC50", "setting": "[2]", "value": "> 30", "unit": "µM"}, {"measurement": "AC50", "setting": "[3]", "value": "> 30", "unit": "µM"}]}, {"smiles": "CN[C@@H](C)[C@@H](O)c1ccccc1", "note": "[PSEUDOEPHEDRINE]", "values": [{"measurement": "AC50", "setting": "[7]", "value": "> 10", "unit": "µM"}, {"measurement": "AC50", "setting": "[11]", "value": "> 30", "unit": "µM"}]}, {"smiles": "CCCN1CC(NS(=O)(=O)N(CC)CC)CC2Cc3c(O)cccc3CC21", "note": "(centres undefined) [QUINAGOLIDE]", "values": [{"measurement": "AC50", "setting": "[1]", "value": "> 30", "unit": "µM"}]}, {"smiles": "O=C1OC(OC(=O)c2cccnc2Nc2cccc(C(F)(F)F)c2)c2ccccc21", "note": "(centres undefined) [TALNIFLUMATE]", "values": [{"measurement": "AC50", "setting": "[4]", "value": "> 30", "unit": "µM"}]}, {"smiles": "O=S1(=O)CCN(CN2CCS(=O)(=O)NC2)CN1", "note": "[TAUROLIDINE]", "values": [{"measurement": "AC50", "setting": "[8]", "value": "> 30", "unit": "µM"}, {"measurement": "AC50", "setting": "[4]", "value": "> 30", "unit": "µM"}]}, {"smiles": "COc1ccc2c(C(=S)N(C)CC(=O)O)cccc2c1C(F)(F)F", "note": "[TOLRESTAT]", "values": [{"measurement": "AC50", "setting": "[8]", "value": "> 30", "unit": "µM"}]}]}
